Measured values published in US9725462B2, “Pyridopyrimidine derivatives as protein kinase inhibitors” (Merck Patent GmbH, priority 2012, dated 2017).

Target: T1, SYK (Homo sapiens, UniProt P43405)
T1 construct: 2.5 nM SYK, 400 nM Biotin-Aha-Aha-KEDPDYEWPSAKK
Test: SYK Flash Plate Assay (enzyme assay)
Assay type: biochemical
Conditions: Syk inhibition
Description: The following abbreviations refer respectively to the definitions below: • aq (aqueous), h (hour), g (gram), L (liter), mg (milligram), MHz (Megahertz), min. (minute), mm (millimeter), mmol (millimole), mM (millimolar), m.p. (melting point), eq (equivalent), mL (milliliter), L (microliter), ACN (acetonitrile), AcOH (acetic acid), CDCl3 (deuterated chloroform), CD3OD (deuterated methanol), CH3CN (acetonitrile), c-hex (cyclohexane), DCC (dicyclohexyl carbodiimide), DCM (dichloromethane), DIC (diisopropyl carbodiimide), DIEA (diisopropylethyl-amine), DMF (dimethylformamide), DMSO (dimethylsulfoxide), DMSO-d6 (deuterated dimethylsulfoxide), EDC (1-(3-dimethyl-amino-propyl)-3-ethylcarbodiimide), ESI (Electro-spray ionization), EtOAc (ethyl acetate), Et2O (diethyl ether), EtOH (ethanol), HATU (dimethylamino-([1,2,3]triazolo[4,5-b]pyridin-3-yloxy)-methylene]-dimethyl-ammonium hexafluorophosphate), HPLC (High Performance Liquid Chromatography), i-PrOH (2-propanol), K2CO3 (potassium carbonate), LC (Liquid Chromatography), MeOH (methanol), MgSO4 (magnesium sulfate), MS (mass spectrometry), MTBE (Methyl tert-butyl ether), NaHCO3 (sodium bicarbonate), NaBH4 (sodium borohydride), NMM (N-methyl morpholine), NMR (Nuclear Magnetic Resonance), PyBOP (benzotriazole-1-yl-oxy-tris-pyrrolidino-phosphonium hexafluorophosphate), RT (room temperature), Rt (retention time), SPE (solid phase extraction), TBTU (2-(1-H-benzotriazole-1-yl)-1,1,3,3-tetramethyluromium tetrafluoro borate), TEA (triethylamine), TFA (trifluoroacetic acid), THF (tetrahydrofuran), TLC (Thin Layer Chromatography), UV (Ultraviolet). Description of the In Vitro Assays SYK Flash Plate Assay
The kinase assay is performed either as 384-well Flashplate assay (for e.g. Topcount measurement) or as 384-well Image-Flashplate assay (for LEADseeker measurement).
2.5 nM SYK, 400 nM Biotin-Aha-Aha-KEDPDYEWPSAKK
and 10 μM ATP (spiked with 0.3 μCi 33P-ATP/well) are incubated in a total volume of 50 μl (60 mM Hepes, 10 mM MgCl2, 1.2 mM Dithiothreitol, 0.02% Brij35, 0.1% BSA, pH 7.5) with or without test compound for 1 hours at 30° C. The reaction is stopped with 25 μl 200 mM EDTA. After 30 Min at 30° C. the liquid is removed and each well washed thrice with 100 μl 0.9% sodium chloride solution. Non-specific reaction is determined in presence of 0.1 μM Staurosporine. Radioactivity is measured with Topcount (when using Flashplates) or with LEADseeker (when using Image-Flashplates) respectively. Results (e.g. IC50-values) are calculated with program tools provided by the IT-department (e.g. Symyx Assay Explorer, Genedata Screener). In Vivo Assays CIA

SMILES: N#Cc1ccc2c(-c3cncc4cnc(NC5CCCCC5)nc34)c[nH]c2c1 [Compound A80, 3-(2-cyclohexylamino-pyrido[4,3-d]pyrimidin-8-yl)-1H-indole-6-carbonitrile]
- IC50: 1 to 50 µM

SMILES: Cc1cccc2[nH]c(-c3cncc4cnc(N[C@H]5CCCC[C@H]5N)nc34)cc12 (stereo in doubt) [Compound A66, (1S,2R)-N-[8-(4-Methyl-1H-indol-2-yl)-pyrido[4,3-d]pyrimidin-2-yl]-cyclohexane-1,2-diamine]
- IC50: 1 to 50 µM

SMILES: N[C@@H]1CCCC[C@@H]1Nc1ncc2cncc(-c3cc4ccc(F)cc4[nH]3)c2n1 (stereo in doubt) [Compound A42, (1S,2R)-N-[8-(6-Fluoro-1H-indol-2-yl)-pyrido[4,3-d]pyrimidin-2-yl]-cyclohexane-1,2-diamine]
- IC50: 1 to 50 µM

SMILES: COc1ccc2c(-c3cncc4cnc(N[C@H]5CCCC[C@H]5N)nc34)c[nH]c2c1 (stereo in doubt) [Compound A40, (1S,2R)-N-[8-(6-Methoxy-1H-indol-3-yl)-pyrido[4,3-d]pyrimidin-2-yl]-cyclohexane-1,2-diamine]
- IC50: < 0.1 µM

SMILES: COC[C@H](N)CNc1ncc2cncc(-c3c[nH]c4cc(C#N)ccc34)c2n1 [Compound A67, 3-[2-((R)-2-Amino-3-methoxy-propylamino)-pyrido[4,3-d]pyrimidin-8-yl]-1H-indole-6-carbonitrile]
- IC50: 1 to 50 µM

SMILES: COc1ccc2[nH]c(-c3cnc(N)c4cnc(N[C@@H]5CCCC[C@@H]5N)nc34)cc2c1 (relative stereo) [Compound A19, N2-(cis-2-Amino-cyclohexyl)-8-(5-methoxy-1H-indol-2-yl)-pyrido[4,3-d]pyrimidine-2,5-diamine]
- IC50: < 0.1 µM

SMILES: CC(C)(C)c1ccc(-c2cnc(N)c3cnc(N[C@H]4CCCC[C@H]4N)nc23)cc1 (relative stereo) [Compound A7, N2-(cis-2-Amino-cyclohexyl)-8-(4-tert-butyl-phenyl)-pyrido[4,3-d]pyrimidine-2,5-diamine]
- IC50: 1 to 50 µM

SMILES: COc1cccc(C#Cc2cncc3cnc(N[C@H]4CCCC[C@H]4N)nc23)c1 (stereo in doubt) [Compound A35, (1S,2R)-N-[8-(3-Methoxy-phenylethynyl)-pyrido[4,3-d]pyrimidin-2-yl]-cyclohexane-1,2-diamine]
- IC50: 0.1 to 1 µM

SMILES: CC(C)n1cc(-c2cncc3cnc(N[C@@H]4CCCC[C@@H]4N)nc23)cn1 [Compound A26, (1S,2R)-[8-(1-Isopropyl-1H-pyrazol-4-yl)-pyrido[4,3-d]pyrimidin-2-yl]-cyclohexane-1,2-diamine]
- IC50: 1 to 50 µM

SMILES: NC(=O)c1ccc2c(-c3cncc4cnc(N[C@@H]5CCCC[C@@H]5N)nc34)c[nH]c2c1 [Compound A77, 3-[2-((1R,2S)-2-amino-cyclohexylamino)-pyrido[4,3-d]pyrimidin-8-yl]-1H-indole-6-carboxylic acid amide]
- IC50: < 0.1 µM

SMILES: N[C@@H]1CCCC[C@@H]1Nc1ncc2cncc(-c3c[nH]c4cc(C(F)(F)F)ccc34)c2n1 (stereo in doubt) [Compound A41, (1S,2R)-N-[8-(6-Trifluoromethyl-1H-indol-3-yl)-pyrido[4,3-d]pyrimidin-2-yl]-cyclohexane-1,2-diamine]
- IC50: < 0.1 µM

SMILES: N#Cc1ccc2[nH]c(-c3cnc(N)c4cnc(N[C@@H]5CCCC[C@@H]5N)nc34)cc2c1 (relative stereo) [Compound A23, 2-[5-Amino-2-((cis)-2-amino-cyclohexylamino)-pyrido[4,3-d]-pyrimidin-8-yl]-1H-indole-5-carbonitrile]
- IC50: 0.1 to 1 µM

SMILES: N#Cc1ccc2c(-c3cnc(C(F)F)c4cnc(N[C@@H]5CCCC[C@@H]5N)nc34)c[nH]c2c1 [Compound A87, 3-[2-((1R,2S)-2-amino-cyclohexylamino)-5-difluoromethyl-pyrido[4,3-d]-pyrimidin-8-yl]-1H-indole-6-carbonitrile]
- IC50: < 0.1 µM

SMILES: Cn1cc(-c2cnc(N)c3cnc(N[C@H]4CCCC[C@H]4N)nc23)cn1 (single isomer, unassigned) [Compound A4, N2-((cis)-2-Amino-cyclohexyl)-8-(1-methyl-1H-pyrazol-4-yl)-pyrido[4,3-d]pyrimidine-2,5-diamine]
- IC50: 1 to 50 µM
